# Entries after “also recorded” stand apart in the source; their conditions may differ.
# Tests used:
# HCT116 cells = assay: Cellular proliferation and viability (Vi-Cell counter, trypan blue exclusion); type: cell-based, human
# Procedure: Cellular Proliferation. […] At each time point, cells were trypsinized with 500 μL of trypsin and resuspended with 1.5 mL DMEM supplemented with FBS. One milliliter of the resuspension was then loaded and analyzed using a Beckman-Coulter Vi-Cell Counter. Cellular viability was measured through the trypan blue exclusion assay.
# hsa-let-7i = assay: Real-time quantitative RT-PCR of mature let-7i; type: cell-based, human
# Procedure: (§1) HCT116 cells were grown in DMEM media supplemented with 10% fetal bovine serum and cultured at 37° C. For reverse transcription, total RNA was extracted using mirVana RNA isolation kit and reverse transcription performed using Taqman Small RNA Assays with predesigned primer specific to mature let-7 (Applied Biosystems). […] Western blots were conducted using anti-HMGA2 (Cell Signaling), LIN28 (abcam), anti-V5 (Invitrogen), eIF5A1 (Epitomics), and Actin (Sigma). […] Pre-designed Silencer Select siRNAs (Invitrogen) were obtained to specifically knockdown eIFSA isoforms. […] All bars show mean±s.d and statistical analysis was performed by using Student's t-test (*P<0.05; **P<0.01, ***P<0.001).
# RNA Isolation and Real-Time Quantitative RT-PCR.
# Total RNA was extracted from cells using the miRVana RNA isolation kit (Ambion) and measured using Thermo Scientific NanoDrop 2000. miRNA levels were measured using an Applied Biosystems 7500 HT PCR instrument with Taqman microRNA assay kits. Controlled reactions were confirmed by excluding reverse transcriptase to confirm amplification from cDNA. Results were analyzed using comparative Ct method between untreated and treated cells. Statistical analysis was performed using two tailed Student's t-tests.
# colon cancer cells = assay: Measurements of intracellular polyamine content (HPLC); type: cell-based, human
# Text: Measurements of Intracellular Polyamine Content.
# Cells were homogenized in 0.2 N HClO4. Acid-soluble and acid insoluble fractions were used to determine intracellular polyamines and protein content, respectively.
# It was hypothesized that the polyamines, acting independently or via eIFSA, might affect levels of non-coding RNAs.
# LIN28 = assay: Immunoblot of LIN28 protein in HCT116 cells; type: cell-based, human
# Procedure: as §1
# (§2) Immunoblot Analysis and Quantification of Western Blot Results.
# (§3) Protein concentrations were determined using BCA assay (Pierce). […] Membranes were washed three times for 10 min and subsequently secondary antibodies were incubated with anti-mouse and anti-rabbit horseradish peroxidase conjugated antibodies (Santa Cruz Biotechnologies). Proteins were visualized by chemoluminescence using Amersham Plus ECL reagent (GE Healthcare). Bands were quantified via Western blot analysis by applying ImageJ software analysis. […] Briefly, areas under the curves were assessed for each specific band and comparisons were calculated by setting corresponding control values as 100% and each condition corrected by actin.
# (§4) The LNA probes were purchased from Exiqon and synthesized using a phosphorothioate backbone.
# [1] = tested on: colorectal cancer cells (HCT116); assay: Non-coding RNA microarray of DFMO treated vs untreated cells; type: cell-based, human; conditions: 96 h
# Procedure: HCT116 cells were grown in DMEM media supplemented with 10% fetal bovine serum and cultured at 37° C. For reverse transcription, total RNA was extracted using mirVana RNA isolation kit and reverse transcription performed using Taqman Small RNA Assays with predesigned primer specific to mature let-7 (Applied Biosystems). […] Western blots were conducted using anti-HMGA2 (Cell Signaling), LIN28 (abcam), anti-V5 (Invitrogen), eIF5A1 (Epitomics), and Actin (Sigma). Locked Nucleic Acid (LNA) anti-sense oligos were purchased from Exiqon and directed against seed region of let-7 as described previously (Obad et al., 2011). Pre-designed Silencer Select siRNAs (Invitrogen) were obtained to specifically knockdown eIFSA isoforms. All transfections were conducted using Lipofectamine 2000 as described by manufacturer for up to 48 h. All bars show mean±s.d and statistical analysis was performed by using Student's t-test (*P<0.05; **P<0.01, ***P<0.001).
# Non-Coding RNA Microarray.
# Samples for miRNA profiling studies were processed by Asuragen Services (Austin, Tex.), according to the company's standard operating procedures. Following incoming sample quality control (QC) assessment, the 3′ ends of RNA molecules in total RNA samples were labeled with biotin according to the company's standard protocol. Labeled RNA (100 ng total RNA per sample) was purified and hybridized to Affymetrix GeneChip® miRNA Arrays (Affymetrix, Santa Clara, Calif.). Hybridization, washing, staining, imaging, and signal extraction were performed according to Affymetrix-recommended procedures. Arrays were scanned on an Affymetrix GeneChip® Scanner 3000 7G.
# Signal Processing. The signal processing implemented for the Affymetrix miRChip is a multi-step process involving probe specific signal detection calls, background estimate and correction. For each probe, a global robust multichip average (RMA) background correction is performed with Median Polish summarization. Arrays within a specific analysis experiment are normalized together using Quantile normalization. Detection calls are based on a Wilcoxon rank-sum test of the miRNA probe signal compared to the distribution of signals from GC-content matched anti-genomic probes. The raw gene expression data (.cel files) were converted to expression values using the miRNAQCTool, an open-source package available through Affymetrix. […]. RMA selection was used as a normalization method. Permutation P-values were then calculated for the t-test comparison between the DFMO treated and untreated placebo plates. These P-values were then ranked and a candidate gene list was compiled, using false discovery rate (FDR), adjusted P-value cut-offs obtained by the linear step-up method described by Benjamini and Hochberg (1995).
# Next, the mechanism by which polyamines modulate oncogenesis and the effects of polyamine depletion on non-coding RNA levels was investigated by using a non-coding RNA microarray platform containing 15,644 probes, which included 1105 human mature miRNAs. MicroRNAs (miRNAs) are small endogenous RNA species known to modulate cellular signaling predominantly by binding the 3′ untranslated region (UTR) of RNA species. Binding of miRNAs to its cognate target generally results in mRNA destabilization or translational repression (Filipowicz et al., 2008). As a result of the abilities of miRNAs to modulate signaling networks involved in both development and neoplastic diseases, miRNAs serve as attractive targets for disease intervention.
# [2] = tested on: tumors harboring Ki-ras mutations; conditions: AOM-treated rats; reduced from 90%; cited from earlier work
# HMGA2 = assay: Immunoblot of HMGA2 protein in HCT116 cells; type: cell-based, human
# Procedure: as §1, §2, §3, §4
# Hmga2 3′ UTR = assay: Hmga2 3' UTR luciferase reporter assay; type: cell-based
# Procedure: Luciferase Reporter Assays.
# Hmga2 3′ UTR reporter plasmids were obtained from Addgene (Plasmid 14785) and have been characterized in previous studies (Mayr et al., 2007). A mutated Hmga2 reporter plasmid with disrupted let-7 complementary sites was also obtained (Addgene plasmid 14792). HCT116 cells were transfected in 6-well plates with 1.5 μg firefly luciferase and 1.5 μg Hmga2 Renilla luciferase reporter plasmids. For functional analysis, 25 nM LNA directed against the let-7 family were transfected with appropriate plasmids. Firefly and renilla luciferase were measured 48 h after transfection using a Dual Luciferase Assay (Promega). Results were then normalized to firefly luciferase. Results are mean±SD.
# tumor putrescine levels = conditions: rat-tumor model, DFMO infusion; cited from earlier work
# [3] = cited from earlier work
# [4] = cited from earlier work; remark: listed apart in the source
# prostoglandin E2 (PGE2) = conditions: 300 mg/day, one month; cited from earlier work
# [5] = in vivo; cited from earlier work
molecule,measurement,setting,value
NCCCCN [putrescine],cellular proliferation of DFMO-treated cells,"HCT116 cells; HCT116 cells, 50 μM putrescine with 5 mM DFMO (FIG. 1B)",proliferation rates similar to control levels
same,let-7i levels in DFMO treated cells,"hsa-let-7i; HCT116, putrescine after DFMO administration (FIG. 1D)",rescued
same,let-7i levels in cultures not treated with drug,"hsa-let-7i; HCT116, putrescine alone (FIG. 1D)",no observable effect
same,intracellular polyamine levels in DFMO-treated cells,colon cancer cells; exogenous putrescine supplementation of DFMO-treated cells (FIG. 1A),restore intracellular polyamine levels
same,LIN28 protein levels in non-drug treated cells,LIN28; putrescine supplementation alone (FIG. 2A),did not alter
same,LIN28 protein levels in DFMO treated cells,LIN28; putrescine supplementation in DFMO treated cells (FIG. 2A),LIN28 levels comparable to vehicle control; also recorded: rescued
"NCCCC(N)(C(=O)O)C(F)F (racemic) [DFMO, 2-(difluoromethyl)-dl-ornithine]",cellular viability levels,"HCT116 cells; DFMO treatment, trypan blue exclusion",not altered
same,cellular proliferation,"HCT116 cells; HCT116 cells, 5 mM DFMO (FIG. 1B)",reduce cellular proliferation
same,"Mean Expression Level Treatment, probe U8_st",[1]; probe U8_st,8.90
same,"Mean Expression Level Treatment, probe U8_x_st",[1]; probe U8_x_st,8.86
same,"Mean Expression Level Treatment, probe U13_st",[1]; probe U13_st,9.81
same,"Mean Expression Level Treatment, probe U50B_st",[1]; probe U50B_st,10.72
same,"Mean Expression Level Treatment, probe U50B_x_st",[1]; probe U50B_x_st,9.86
same,"Mean Expression Level Treatment, probe hsa-let-7i_st",[1]; probe hsa-let-7i_st,10.74
same,"Mean Expression Level Treatment, probe hsa-miR-22_st",[1]; probe hsa-miR-22_st,10.38
same,"Mean Expression Level Treatment, probe hsa-miR-193b_st",[1]; probe hsa-miR-193b_st,8.79
same,"Mean Expression Level Treatment, probe hsa-miR-200a-star_st",[1]; probe hsa-miR-200a-star_st,4.89
same,"Mean Expression Level Treatment, probe hsa-miR-221_st",[1]; probe hsa-miR-221_st,12.50
same,"Mean Expression Level Treatment, probe hsa-miR-494_st",[1]; probe hsa-miR-494_st,12.64
same,"Mean Expression Level Treatment, probe hsa-miR-517a_st",[1]; probe hsa-miR-517a_st,1.47
same,"Mean Expression Level Treatment, probe hsa-miR-720_st",[1]; probe hsa-miR-720_st,14.63
same,"Mean Expression Level Treatment, probe hsa-miR-886-3p_st",[1]; probe hsa-miR-886-3p_st,11.26
same,expression of mature let-7i,"hsa-let-7i; HCT116 cells treated with DFMO, maximal at 96 h (FIG. 1C)",Increased expression
same,number of tumors harboring Ki-ras mutations,[2],36%
same,intracellular polyamine pools,"colon cancer cells; colon cancer cells, 96 h of DFMO treatment (FIG. 1A)",depletion of putrescine and spermidine
same,HMGA2 protein levels,"HMGA2; HCT116 cells, 5 mM DFMO, 72 h (FIG. 2A, 2C)",robust HMGA2 depletion; also recorded: lower HMGA2 levels
same,LIN28 protein levels,"LIN28; HCT116 cells, 5 mM DFMO, 72 h (FIG. 2A)",lowered levels of LIN28
same,HMGA2 luciferase activity,Hmga2 3′ UTR; DFMO-treated mock cells compared to mock-untreated cells (FIG. 2B),a reduction in HMGA2 luciferase was observed
same,decrease in tumor putrescine levels,tumor putrescine levels,90%
"CC1=C(CC(=O)O)c2cc(F)ccc2/C1=C\c1ccc([S+](C)[O-])cc1 (stereo not shown) [sulindac, (Z)-5-fluoro-2-methyl-1-((4 (methylsulfinyl)phenyl)methylene) 1H-indene-3-acetic acid]","time to peak plasma levels, with food",[3]; administered with food,3 to 4 h
same,fraction of the drug absorbed,[3]; after oral administration,about 90%
same,"time to peak plasma levels, fasting",[3]; fasting patients,about 2 h
same,patients with mild gastrointestinal effects,[4]; abdominal pain and nausea most frequent,~20%
same,patients with skin rash and pruritus,"[4]; human, in vivo",5%
CC(C)Cc1ccc(C(C)C(=O)O)cc1 (stereo not shown) [ibuprofen],prostoglandin E2 (PGE2) levels in flat mucosa,prostoglandin E2 (PGE2),significant decrease
"CN1C(C(=O)Nc2ccccn2)=C(O)c2ccccc2S1(=O)=O [piroxicam, 4-hydroxy-2-methyl-N-2-pyridyl-2H-1,2-benzothiazine-3-carboxamide 1,1-dioxide]",number of tumors harboring Ki-ras mutations,[2],25%
"anti-let-7 LNA: locked nucleic acid antisense oligo, phosphorothioate backbone, against let-7 seed region: ACTACCTC (SEQ ID NO: 1) (all phosphorothioate, sugars by position and methylation of C not given here; LNA oligo)",HMGA2 protein in DFMO-treated cells,HMGA2; LNA transfected DFMO-treated HCT116 cells (FIG. 2C),rescued
same,"HMGA2 protein levels, cells without DFMO","HMGA2; LNA transfected mock-treated HCT116 cells (FIG. 2C, 3C), listed as LNAs targeting let-7",increase in HMGA2 protein levels; also recorded: increased
same,LIN28 expression,"LIN28; 25 nM anti-let-7 LNA, HCT116 cells (FIG. 3C)",little effect
same,wild-type Hmga2 3′ UTR luciferase activity,"Hmga2 3′ UTR; 25 nM LNA, both DFMO treated and untreated HCT116 cells (FIG. 2B)",enhanced luciferase activity
same,mutated 3′ UTR Hmga2 luciferase activity,"Hmga2 3′ UTR; 25 nM LNA, irrespective of polyamine levels (FIG. 2B)",no observable effect
"Cc1ccc(-c2cc(C(F)(F)F)nn2-c2ccc(S(N)(=O)=O)cc2)cc1 [celecoxib, 4-[5-(4-Methylphenyl)-3-(trifluoromethyl)pyrazol-1-yl]benzenesulfonamide]",increase in rates of heart and blood vessel disease,[5],30%
same,risk of gastrointestinal side effects,[5],greater than 80%
